Reference: article PMC10794144, “A novel antibiotic class targeting the lipopolysaccharide transporter” (Nature, 2024)
≈ marks a conversion by molar mass, not a printed value. Where two headings read alike, the source gives them in different places.

Assays:
A. baumannii [1] = assay: Bacterial phenotypic fingerprint profiling; type: cell-based, Acinetobacter baumannii; conditions: random forest model
Experimental: Sample preparation and analysis was conducted as previously described[26] for A. baumannii, with the generated and analysed dataset consisting of three independent experiments, n = 3, as the only modification to the protocol.
For the random forest analysis data proximity analysis from 4x and 8x LOED are pooled and the number of datapoints are reduced by down sampling to be equal for all reference conditions the maximal projection of the analysis. b, In the right panel an out-of-bag validation of the random forest classification model is indicated for the reference compounds. […] The degree of frequency of matching prediction correspond to the length of the individual bar segment, where a longer segment represents a higher similarity. […] Source Data

A. baumannii ACC01073 = assay: Neutropaenic mouse lung infection (pneumonia) model; type: in vivo; conditions: for CFU/lungs, average / Log CFU/lungs, average (bacterial load): n = 6
Experimental: An intramuscular inoculation of a bacterial suspension of approximately 10^6 CFU per thigh was used to induce the infection. Treatment started 2 h after infection. […] Thigh bacterial burden was determined after 24 h of treatment. In the pneumonia model, an intratracheal inoculation of approximately 10^7 CFU per lung was used to induce the infection. Treatment started 2 h after infection. […] Lung bacterial burden was determined after 24 h treatment. Standard of care antibiotic was tested at a single dose in both infection models. GraphPad Prism 8 was used for graphical presentation and to analyse data.

A. baumannii [2] = assay: MIC, broth microdilution in CAMHB supplemented with human serum, read at 100% growth inhibition; type: cell-based, Acinetobacter baumannii
Experimental: MIC determinations were performed using the broth microdilution method and in line with CLSI guidelines M07 and M100 (refs. [37],[38]). Bacterial inocula were prepared by diluting a 0.5 McFarland suspension in CAMHB or lysogeny broth (LB) specifically for A. baylyi isolates. […] MIC values of all of the tested antibiotics were read as the lowest compound concentration inhibiting bacterial growth by naked eye or beyond which the OD600 ceased to decrease.

CN1C(=O)[C@H](CCCCN)NC(=O)[C@H](CCCN)NCc2cccnc2Sc2cccc(-c3ccc(C(=O)O)cc3)c2CNC(=O)[C@@H]1Cc1c[nH]c2ccccc12 [zosurabalpin]
Similarity towards RO7202110 (A. baumannii [1]): > 70% | ΔLog CFU/lungs vs A/0h (A. baumannii ACC01073; 6 mg/kg/day s.c. q6h, 24 h): 1.37 | CFU/lungs, average (A. baumannii ACC01073; 6 mg/kg/day s.c. q6h, 24 h): 1.26E+09 | Log CFU/lungs, average (bacterial load) (A. baumannii ACC01073; 6 mg/kg/day s.c. q6h, 24 h): 9.06 | ΔLog CFU/lungs vs A/0h (A. baumannii ACC01073; 20 mg/kg/day q6h): 1.47 | CFU/lungs, average (A. baumannii ACC01073; 20 mg/kg/day q6h): 1.49E+09 | Log CFU/lungs, average (bacterial load) (A. baumannii ACC01073; 20 mg/kg/day q6h): 9.16 | ΔLog CFU/lungs vs A/0h (A. baumannii ACC01073; 60 mg/kg/day q6h): 1.13 | CFU/lungs, average (A. baumannii ACC01073; 60 mg/kg/day q6h): 8.46E+08 | Log CFU/lungs, average (bacterial load) (A. baumannii ACC01073; 60 mg/kg/day q6h): 8.82 | ΔLog CFU/lungs vs A/0h (A. baumannii ACC01073; 100 mg/kg/day q6h): -0.05 | CFU/lungs, average (A. baumannii ACC01073; 100 mg/kg/day q6h): 1.38E+08 | Log CFU/lungs, average (bacterial load) (A. baumannii ACC01073; 100 mg/kg/day q6h): 7.64 | ΔLog CFU/lungs vs A/0h (A. baumannii ACC01073; 160 mg/kg/day q6h): -1.08 | CFU/lungs, average (A. baumannii ACC01073; 160 mg/kg/day q6h): 9.40E+06 | Log CFU/lungs, average (bacterial load) (A. baumannii ACC01073; 160 mg/kg/day q6h): 6.61 | ΔLog CFU/lungs vs A/0h (A. baumannii ACC01073; 240 mg/kg/day q6h): -2.52 | CFU/lungs, average (A. baumannii ACC01073; 240 mg/kg/day q6h): 4.14E+05 | Log CFU/lungs, average (bacterial load) (A. baumannii ACC01073; 240 mg/kg/day q6h): 5.17 | Reduction in CFUs in lungs (A. baumannii ACC01073; 360 mg per kg per day): > 5 log | ΔLog CFU/lungs vs A/0h (A. baumannii ACC01073; 360 mg/kg/day q6h): -4.81 | CFU/lungs, average (A. baumannii ACC01073; 360 mg/kg/day q6h): 9.88E+02 | Log CFU/lungs, average (bacterial load) (A. baumannii ACC01073; 360 mg/kg/day q6h): 2.88 | MIC range (A. baumannii [2]; 129 clinical isolates): ≤0.016 to 4 µg/mL | MIC (A. baumannii [2]; ACC01073, CAMHB + 20% HS): 2 µg/mL | MIC (A. baumannii [2]; Acinetobacter baumannii, ACC00445, CAMHB + 20% HS, read-out: MIC): 0.25 µg/mL | MIC (A. baumannii [2]; Acinetobacter baumannii, ACC00535, CAMHB + 20% HS, read-out: MIC): 0.12 µg/mL | MIC (A. baumannii [2]; Acinetobacter baumannii, ACC01073, CAMHB + 20% HS, read-out: MIC): 2 µg/mL | MIC (A. baumannii [2]; Acinetobacter baumannii, ACC01077, CAMHB + 20% HS, read-out: MIC): 0.25 µg/mL | MIC (A. baumannii [2]; Acinetobacter baumannii, ACC01085 / AR0307, CAMHB + 20% HS, read-out: MIC): 0.5 µg/mL | MIC (A. baumannii [2]; Acinetobacter baumannii, ATCC17978, ATCC 17978, CAMHB + 20% HS, read-out: MIC): 0.12 µg/mL | MIC (A. baumannii [2]; Acinetobacter baumannii, ATCC19606, ATCC 19606, CAMHB + 20% HS, read-out: MIC): 0.5 µg/mL | MIC (A. baumannii [2]; Acinetobacter baumannii, ATCCBAA747, ATCC BAA-747, CAMHB + 20% HS, read-out: MIC): ≤ 0.06 µg/mL | MIC (A. baumannii [2]; Acinetobacter baumannii, ROB08701, 129-isolate panel, 20% HS, read-out: MIC): 0.06 µg/mL (≈ 0.0759 µM) | MIC (A. baumannii [2]; Acinetobacter baumannii, ROB08701, CAMHB + 20% HS, read-out: MIC): ≤ 0.06 µg/mL | MIC (A. baumannii [2]; Acinetobacter baumannii, ROB08702, 129-isolate panel, 20% HS, read-out: MIC): 0.125 µg/mL (≈ 0.158 µM) | MIC (A. baumannii [2]; Acinetobacter baumannii, ROB08702, CAMHB + 20% HS, read-out: MIC): 0.12 µg/mL | MIC (A. baumannii [2]; Acinetobacter baumannii, ROB08703, 129-isolate panel, 20% HS, read-out: MIC): 0.5 µg/mL (≈ 0.632 µM) | MIC (A. baumannii [2]; Acinetobacter baumannii, ROB08703, CAMHB + 20% HS, read-out: MIC): 2 µg/mL | MIC (A. baumannii [2]; Acinetobacter baumannii, ROB08704, 129-isolate panel, 20% HS, read-out: MIC): 0.25 µg/mL (≈ 0.316 µM) | MIC (A. baumannii [2]; Acinetobacter baumannii, ROB08704, CAMHB + 20% HS, read-out: MIC): 0.25 µg/mL | MIC (A. baumannii [2]; Acinetobacter baumannii, ROB08705, 129-isolate panel, 20% HS, read-out: MIC): 0.06 µg/mL (≈ 0.0759 µM) | MIC (A. baumannii [2]; Acinetobacter baumannii, ROB08705, CAMHB + 20% HS, read-out: MIC): 0.25 µg/mL | MIC (A. baumannii [2]; Acinetobacter baumannii, ROB08706, 129-isolate panel, 20% HS, read-out: MIC): 0.125 µg/mL (≈ 0.158 µM) | MIC (A. baumannii [2]; Acinetobacter baumannii, ROB08706, CAMHB + 20% HS, read-out: MIC): 1 µg/mL | MIC (A. baumannii [2]; Acinetobacter baumannii, ROB08707, 129-isolate panel, 20% HS, read-out: MIC): 0.03 µg/mL (≈ 0.0379 µM) | MIC (A. baumannii [2]; Acinetobacter baumannii, ROB08707, CAMHB + 20% HS, read-out: MIC): ≤ 0.06 µg/mL | MIC (A. baumannii [2]; Acinetobacter baumannii, ROB08708, 129-isolate panel, 20% HS, read-out: MIC): 0.125 µg/mL (≈ 0.158 µM) | MIC (A. baumannii [2]; Acinetobacter baumannii, ROB08708, CAMHB + 20% HS, read-out: MIC): 0.25 µg/mL | MIC (A. baumannii [2]; Acinetobacter baumannii, ROB08709, 129-isolate panel, 20% HS, read-out: MIC): 0.03 µg/mL (≈ 0.0379 µM) | MIC (A. baumannii [2]; Acinetobacter baumannii, ROB08709, CAMHB + 20% HS, read-out: MIC): ≤ 0.06 µg/mL | MIC (A. baumannii [2]; Acinetobacter baumannii, ROB08710, 129-isolate panel, 20% HS, read-out: MIC): 0.125 µg/mL (≈ 0.158 µM) | MIC (A. baumannii [2]; Acinetobacter baumannii, ROB08710, CAMHB + 20% HS, read-out: MIC): 0.12 µg/mL | MIC (A. baumannii [2]; Acinetobacter baumannii, ROB08961 (LpxM NS), 20% HS, read-out: MIC): 4 µg/mL (≈ 5.06 µM) | MIC (A. baumannii [2]; Acinetobacter baumannii, ROB08979 (LptF R322L), 20% HS, read-out: MIC): 8 µg/mL (≈ 10.1 µM) | MIC (A. baumannii [2]; Acinetobacter baumannii, ROB08982 (lpxM ISAba1), 20% HS, read-out: MIC): 4 µg/mL (≈ 5.06 µM) | MIC (A. baumannii [2]; Acinetobacter baumannii, ROB08985 (LpxM NS), 20% HS, read-out: MIC): 4 µg/mL (≈ 5.06 µM) | MIC (A. baumannii [2]; Acinetobacter baumannii, ROB08997 (LptF I323K), 20% HS, read-out: MIC): 16 µg/mL (≈ 20.2 µM)
